Marks after values point to notes of the source that are not given here. Where a SMILES comes first, the peptide text is derived from it. Where no end group is shown, it is not given here. [ ]: non-standard residue; d: D form. The star is where a group is joined. Fmoc = O=C(OCC1c2ccccc2-c2ccccc21)*
Columns and labels:
[1] = Peptide stability in FBS by residual IP3 production; assay type: in vitro ADME, bovine; conditions: peptide 1 μM in 100% FBS, 37 °C, 0, 3, 6, 12, 24, 48, 72 h; residual activity read as IP3 production ([3H]-inositol) in HEK293 cells expressing GALR2; mean ± S.E., at least three independent experiments
Procedure: (§1) To investigate the effects of the modifications on proteolytic susceptibility, the functional activity of peptides that were incubated in 100% serum at 37 °C for 0, 3, 6, 12, 24, 48, and 72 h was determined via inositol 1,4,5-triphosphate (IP3) production in GALR2-expressing cells (Fig. 4A–C and Table 3). […] In addition, dAla4 and dGln14 substitutions contribute to longer longevity of the peptide in serum. In an additional experiment, we examined the degradation rates of the Qu mutant, as well as the Qu mutant with an N-terminal modification and/or dAla4 and dGln14 substitutions.
(§2) Figure 4 Stability of SPX mutants in the presence of FBS (A) Qu analogs in FBS (B) and human serum (C). Potency of Qu mutants toward GALR2 (D) and GALR3 (E). For stability of SPX mutants, peptides (1 μM) were incubated in serum for 0, 3, 6, 12, 24, 48, and 72 hrs. The remaining activities of the peptides were determined by measuring IP3 production by HEK293 cells that express GALR2 after the indicated times. IP3 production was expressed as percent change, where 100% indicates IP3 production by WT SPX incubated in FBS or human serum for 0 h. For potency of Qu mutants toward GALR2 and GALR3, the SRE-luc reporter vector and plasmid containing human GALR2 or GALR3 were transfected into HEK293 cells that stably expressed Gqi protein. Cells were then treated with increasing concentrations of mutant peptides, and the receptor activities were determined using the SRE-luc reporter system.
(§3) To evaluate the stability of SPX and its analogs in FBS or human serum, peptides were incubated at an initial concentration of 1 μM in 100% serum at 37 °C for 0, 3, 6, 12, 24, 48, and 72 hours. Residual peptide activity was then assessed by measuring IP3 in HEK293 cells expressing GALR2. For the IP3 assay, cells were seeded in 12-well plates at a density of 2.5 × 10^5 cells per well, and then the next day, cells were transiently transfected with 1 μg/well of plasmid containing GALR2 using the Lipofectamine 2000 (Invitrogen) transfection reagent. The day following transfection, cells were incubated in M199 media containing 1% FBS, 1% L-glutamine, 1% penicillin/streptomycin, and 1 μCi/well of myo-^3H inositol for 20 h. After a 30-min incubation in buffer A (140 mM NaCl, 20 mM Hepes, 4 mM KCl, 8 mM D-glucose, 1 mM MgCl2, 1 mM CaCl2, 1 mg/ml free fatty acid bovine serum albumin (BSA), and 10 mM LiCl at pH 7.2), cells were treated with the agonist for 40 min at 37 °C. Media was removed, and the reactions were terminated by addition of 1 ml of 10 mM cold formic acid to each well. The plates were stored at 4 °C for 30 min, and the extracts were then transferred into 6-ml plastic tubes containing 500 μl AG1–8X anion exchange columns (BIO-RAD). The tubes were gently mixed with a vortexer, and the supernatants were removed by aspiration. Two washes with 1 ml of distilled water were performed followed by two additional washes with 60 mM ammonium formate/5mM sodium tetraborate. Tritiated inositol was separated from the column by elution with 1 ml of 1 M ammonium formate/0.1 M formic acid, and 800 μl from the elution were taken from each tube and transferred into 6-ml scintillation vials. Then, 2 ml of scintillation cocktail solution (Ultima Gold^TM, Perkin Elmer, Waltham MA, USA) was added to each sample. The radioactivity of [^3H]-myo-inositol samples was measured using a TRI carb 3100TR liquid scintillation analyzer (Packard).

[2] = Peptide stability in human serum by residual IP3 production; assay type: in vitro ADME; conditions: peptide 1 μM in 100% human serum, 37 °C, 0, 3, 6, 12, 24, 48, 72 h; residual activity read as IP3 production ([3H]-inositol) in HEK293 cells expressing GALR2; mean ± S.E., at least three independent experiments
Procedure: as §1, §2, §3

human GALR2 = target: T1, human GALR2 (Homo sapiens, UniProt O43603); experiment: SRE-luc reporter assay, GALR2;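 note: luciferase activity read in cell lysates after exposure to rising peptide concentrations, EC50 being the agonist level giving half-maximal stimulation from a sigmoidal nonlinear regression fit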; assay type: cell-based; conditions: HEK293-Gqi cells transfected with SRE-luc and human GALR2; 6 h ligand treatment; mean ± S.E. of at least three independent experiments; NM = not measurable; read-out: GALR2 EC50
T1 construct: host or cells: HEK293 cells stably expressing Gαqi
T1 sequence (O43603 1-387): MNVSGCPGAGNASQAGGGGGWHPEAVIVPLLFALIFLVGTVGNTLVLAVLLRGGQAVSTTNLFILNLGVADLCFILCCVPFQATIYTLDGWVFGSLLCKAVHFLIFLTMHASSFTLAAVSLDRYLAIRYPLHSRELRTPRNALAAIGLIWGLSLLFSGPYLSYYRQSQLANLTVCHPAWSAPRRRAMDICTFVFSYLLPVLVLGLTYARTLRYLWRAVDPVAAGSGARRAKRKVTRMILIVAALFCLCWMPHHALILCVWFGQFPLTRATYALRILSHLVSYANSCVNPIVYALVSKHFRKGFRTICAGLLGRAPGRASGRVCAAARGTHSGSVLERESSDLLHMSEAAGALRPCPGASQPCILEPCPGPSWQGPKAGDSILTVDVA
Procedure: (§4) The generated mutant SPX peptides were incubated with cells expressing GALR2 and GALR3. […] The activities of the receptors were traced using the serum-response element-driven luciferase (SRE-luc) assay system.
(§5) The SRE-luc reporter vector and plasmid containing human GALR1, GALR2, or GALR3 were transfected into HEK293 cells that stably expressed Gqi protein. Cells were then treated with increasing concentrations of mutant peptides, and the receptor activities were determined using the SRE-luc reporter system.
(§6) HEK293 cells stably expressing Gαqi, which mediates Gαi-coupled receptor activation by stimulating Gαq-dependent signaling pathways[59], were maintained in Dulbecco’s modified Eagle’s medium (DMEM) supplemented with 10% FBS, 100 U/ml penicillin G, and 100 μg/ml streptomycin (Invitrogen). Cells were seeded in 48-well plates at a density of 2 × 10^4 cells per well, one day before transfection. A mixture containing 75 ng of the SRE-luc reporter construct, 75 ng of expression plasmid, and 2 μl of Effectene reagent (Qiagen, Chatsworth, CA, USA) was prepared and added to each well according to the manufacturer’s instructions. Cells were then maintained in serum-free DMEM for 16–18 h before treatment with the ligands. Approximately 48 h after transfection, cells were treated with the respective ligands for 6 h. Cells were lysed by the addition of 100 μl lysis buffer. The luciferase activity in 50 μl of cell extract was determined by a luciferase assay system according to the standard protocol for the Synergy 2 Multi-Mode Microplate Reader (BioTek, Winooski, VT, USA).
(§7) For in vitro studies data analysis was performed by nonlinear regression with a sigmoidal dose-response. The agonist concentrations that induced half-maximal stimulation (EC50) or half-maximal inhibition of binding (IC50) were calculated with GraphPad PRISM4 software (GraphPad Software Inc., San Diego, CA, USA). […] All data are presented as mean ± S.E. of at least three independent experiments and a P value of P < 0.05 was considered statistically significant.

human GALR3 = target: T2, human GALR3 (Homo sapiens, UniProt O60755); experiment: SRE-luc reporter assay, GALR3;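 note: luciferase activity read in cell lysates across rising peptide concentrations, EC50 being the agonist concentration giving half-maximal stimulation from a sigmoidal nonlinear fit, Gαqi routing Gi-coupled receptor signaling through Gq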; assay type: cell-based; conditions: HEK293-Gqi cells transfected with SRE-luc and human GALR3; 6 h ligand treatment; mean ± S.E. of at least three independent experiments; NM = not measurable; read-out: GALR3 EC50
T2 construct: host or cells: HEK293 cells stably expressing Gαqi
T2 sequence (O60755 1-368): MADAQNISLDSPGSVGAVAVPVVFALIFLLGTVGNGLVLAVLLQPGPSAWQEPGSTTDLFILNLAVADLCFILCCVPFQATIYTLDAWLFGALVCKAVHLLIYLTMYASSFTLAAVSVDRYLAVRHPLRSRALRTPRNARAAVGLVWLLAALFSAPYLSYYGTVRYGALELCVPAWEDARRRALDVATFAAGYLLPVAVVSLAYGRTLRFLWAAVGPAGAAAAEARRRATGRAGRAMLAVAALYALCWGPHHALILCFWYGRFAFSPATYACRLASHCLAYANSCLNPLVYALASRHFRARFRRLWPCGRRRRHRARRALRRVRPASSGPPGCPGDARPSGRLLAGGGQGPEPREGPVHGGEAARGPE
Procedure: as §4, §5, §6, §7

Compound	Half-life activity (h) in FBS [1]	Half-life activity (h) in Human Serum [2]	EC50 (human GALR2)	EC50 (human GALR3)
CC(C)C[C@H](NC(=O)[C@H](C)NC(=O)[C@H](C)NC(=O)[C@H](CC(N)=O)NC(=O)[C@@H]1CCCN1C(=O)[C@@H](NC(=O)[C@H](Cc1c[nH]c2ccccc12)NC(=O)[C@H](CC(N)=O)NC(=O)OCC1c2ccccc2-c2ccccc21)[C@@H](C)O)C(=O)N[C@@H](Cc1ccc(O)cc1)C(=O)N[C@@H](CC(C)C)C(=O)N[C@@H](Cc1ccccc1)C(=O)NCC(=O)N1CCC[C@H]1C(=O)N[C@H](CCC(N)=O)C(N)=O [Fmoc-Qu-dQ14] (Fmoc-NWTPNAALYLFGP[dQ]-NH2)	8.4 ± 0.3 ^a h	6.3 ± 0.1 ^a h	–	–
NWTPNAALYLFGPQ-NH2 [N5A7F11P13(Qu)]	2.6 ± 0.2 h	2.0 ± 0.2 h	55 ± 9.24 nM	> 10000 nM
CC(C)C[C@H](NC(=O)[C@H](C)NC(=O)[C@H](C)NC(=O)[C@H](CC(N)=O)NC(=O)[C@@H]1CCCN1C(=O)[C@@H](NC(=O)[C@H](Cc1c[nH]c2ccccc12)NC(=O)[C@H](CC(N)=O)NC(=O)OCC1c2ccccc2-c2ccccc21)[C@@H](C)O)C(=O)N[C@@H](Cc1ccc(O)cc1)C(=O)N[C@@H](CC(C)C)C(=O)N[C@@H](Cc1ccccc1)C(=O)NCC(=O)N1CCC[C@H]1C(=O)N[C@@H](CCC(N)=O)C(N)=O [Fmoc-Qu] (Fmoc-NWTPNAALYLFGPQ-NH2)	6.1 ± 0.2 ^a h	4.9 ± 0.1 ^a h	–	–
CC(C)C[C@H](NC(=O)[C@H](C)NC(=O)[C@H](C)NC(=O)[C@H](CC(N)=O)NC(=O)[C@@H](C)NC(=O)[C@@H](NC(=O)[C@H](Cc1c[nH]c2ccccc12)NC(=O)[C@H](CC(N)=O)NC(=O)OCC1c2ccccc2-c2ccccc21)[C@@H](C)O)C(=O)N[C@@H](Cc1ccc(O)cc1)C(=O)N[C@@H](CC(C)C)C(=O)N[C@@H](Cc1ccccc1)C(=O)NCC(=O)N1CCC[C@H]1C(=O)N[C@H](CCC(N)=O)C(N)=O [Fmoc-Qu-dA4-dQ14] (Fmoc-NWT[dA]NAALYLFGP[dQ]-NH2)	11.8 ± 0.2 ^a h	8.8 ± 0.2 ^a h	–	–
